Tests used:
[1] = tested on: human peripheral blood cells; experiment: Toxicity assays in human peripheral blood cells; format: cell-based
Protocol: Fig 7 Toxicity assays in human peripheral blood cells. Peripheral blood was collected in EDTA-coated tubes from 5 healthy volunteers (age range: 25–30 years). Concentration was adjusted to 1.8×10^9 cells/L using RPMI-1640 medium containing 1% penicillin/streptomycin. Cells were cultured in triplicate in the presence or the absence of 30 or 60 μM CAM or compound 5, under a humidified 5% CO2 atmosphere for 5 days, at 37°C. Cultures were counted daily by a CELL-DYN 3700 Hematology Analyzer and values were expressed as a percentage of cells measured in controls.
Peripheral blood was collected in EDTA-coated tubes from 5 healthy volunteers (age range: 25–30 years). Cell concentration was adjusted to 5×10^8 cells/l using RPMI-1640 medium (GIBCO BRL) containing 1% penicillin/streptomycin. Cells were cultured in triplicate under a humidified 5% CO2 atmosphere for 5 days, at 37°C, in the absence (control cultures) or the presence of CAM or CAM dimers. Counting of cells was performed daily in a CELL-DYN 3700 Hematology Analyzer (Abbott, USA) and values were expressed as a percentage of cells measured in control cultures.

[2] = tested on: Jurkat cells; experiment: Toxicity assays in Jurkat cells (cell counting, necrosis and apoptosis by flow cytometry); format: cell-based, Human
Protocol: Fig 8 Toxicity assays in Jurkat cells. Jurkat cells were adjusted to 1×10^9 cells/L in RPMI-1640 medium containing 1% Penicillin/Streptomycin and 10% fetal bovine serum. The cells were grown in triplicate in the presence or absence of compound 5 at the indicated concentrations for 4 days at 37°C, under a humidified 5% CO2 atmosphere. CAM was used as a reference compound. For cell necrosis and apoptosis assays, samples (10^6 cells) were collected daily and determined by flow cytometry. Apoptotic and necrotic cells were expressed as a percentage of total cells.
Human leukemic cell lines, HS-Sultan (Burkitt’s lymphoma), Jurkat (T-cell acute lymphoblastic leukemia), and U937 (histiocytic lymphoma), were adjusted to 1×10^9 cells/l in RPMI-1640 medium supplemented with 10% fetal bovine serum and 1% penicillin/streptomycin. The cells were grown in triplicate in the absence (control cultures) or presence of CAM or CAM dimers for 4 days at 37°C, under a humidified 5% CO2 atmosphere. The medium was changed daily; CAM or CAM dimer addition was repeated after medium change. Aliquots were collected daily and counted in a CELL-DYN 3700 Hematology Analyzer. For cell necrosis and apoptosis assays, samples (10^6 cells) were collected and determined using the Annexin V-PE Apoptosis Detection Kit I (BD Pharmingen) for flow cytometry, according to the manufacturers’ instructions. Flow cytometry data were analyzed using the FlowJo flow cytometry analysis software. Necrotic and apoptotic cells were expressed as a percentage of total cells.

[3] = tested on: 70S ribosomes from E. coli (23S rRNA); experiment: Crosslinking of CAM dimers to ribosomes upon 365 nm irradiation; format: binding; settings: R*I complex, 365 nm light for 30 min, compound at 10×K i
Protocol: Specifically, a mixture of E. coli ribosomes together with either 4 or 5, each added to the incubation mixture at concentration equal to 10×K i, were irradiated for 30 min with 365 nm light. Following purification, the irradiation products were analyzed by primer extension. […] In contrast, compound 4 crosslinked to C2611, without raising any modification signal in the A2058-A2059 region. It should be mentioned that the concentrations used for compounds 4 and 5 in this series of experiments were much lower (<60 μM) than those of CAM utilized previously by Long & Porse. […]
Fig 5 CAM dimer crosslinking at the entrance to the exit tunnel, upon UV-irradiation. […] The irradiation products were analyzed by probing with DMS (panels A and B) or CMCT (panel C) and primer extension, before (lanes 3 and 6) or after discharging from excess CAM dimer (lanes 2 and 5). […]
Following formation of R*I complexes, the samples were irradiated at 365 nm, for 30 min, in a Vilber Lourmat UV Cabinet (VL-215.LC-30W) light source. […] Half of the sample was probed with DMS or CMCT, and then analyzed by primer extension as shown above, while the other half was extracted with phenol, phenol-chloroform (1:1), and chloroform, followed by ethanol precipitation to remove non-crosslinked agents. […]

For `O=C(N[C@H](CO)[C@H](O)c1ccc([N+](=O)[O-])cc1)c1ccc(C(=O)N[C@H](CO)[C@H](O)c2ccc([N+](=O)[O-])cc2)cc1` [Compound 5, N^1,N^4-Bis ((1R,2R)-1,3-dihydroxy-1-(4-nitrophenyl)propan-2-yl)-terephthalamide], the “toxicity against other types of leukocytes” value [1] was “negligible”, the “time of peak toxicity on neutrophils” value ([1]; 120 h exposure of blood cells) was 48 h and the toxicity on neutrophils ([1]; 120 h exposure of blood cells, 30 or 60 μM) was “mild and transient toxicity”. For the same compound, the “apoptosis, expressed as a percentage of total cells” value ([2]; 60 μM, flow cytometry) was 43%, the necrosis ([2]; 60 μM, flow cytometry) was “failed to induce necrosis” and the “growth of Jurkat cells” value ([2]; daily cell counting, all tested concentrations) was “the rate of growth was reduced proportionally to the concentration”. For the same compound, the “nucleoside(s) of 23S rRNA crosslinked” value [3] was “C2610, and less to nucleosides A2058 and A2059”.

— PMC4533973, “Synthesis and Evaluation of Chloramphenicol Homodimers: Molecular Target, Antimicrobial Activity, and Toxicity against Human Cells” (PLoS ONE, 2015)
